pIC50: −log10 of the molar value. Calls of active or inactive are those of the source. The rule behind the calls is not given here.
Columns and labels:
[1] = Inhibition of calf DNA polymerase alpha using poly(dA)/oligo(dT)18 (A/T, 2/1)/dTTP DNA template-primer substrate measured at 37 degC for 60 mins; design: species or system Bos taurus
[2] = target: T1, DNA polymerase lambda (Homo sapiens, UniProt Q9UGP5); assay: Inhibition of human DNA polymerase lambda using poly(dA)/oligo(dT)18 (A/T, 2/1)/dTTP DNA template-primer substrate measured at 37 degC for 60 mins
T1 sequence (Q9UGP5 whole entry): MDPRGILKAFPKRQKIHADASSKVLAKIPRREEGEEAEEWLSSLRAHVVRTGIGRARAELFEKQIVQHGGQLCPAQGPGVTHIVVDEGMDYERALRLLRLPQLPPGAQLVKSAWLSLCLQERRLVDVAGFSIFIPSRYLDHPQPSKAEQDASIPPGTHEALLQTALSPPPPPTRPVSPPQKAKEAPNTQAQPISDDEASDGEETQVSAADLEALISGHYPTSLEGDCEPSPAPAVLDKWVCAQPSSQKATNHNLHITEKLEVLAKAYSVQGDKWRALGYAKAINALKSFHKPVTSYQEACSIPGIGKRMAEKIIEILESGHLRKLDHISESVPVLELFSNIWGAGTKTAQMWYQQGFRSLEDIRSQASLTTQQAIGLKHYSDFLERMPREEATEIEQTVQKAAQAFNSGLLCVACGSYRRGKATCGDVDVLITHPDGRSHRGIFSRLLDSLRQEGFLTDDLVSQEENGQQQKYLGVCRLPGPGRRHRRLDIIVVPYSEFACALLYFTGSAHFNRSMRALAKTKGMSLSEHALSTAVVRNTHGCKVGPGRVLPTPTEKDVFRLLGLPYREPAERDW

[3] = target: DNA polymerase beta (Rattus norvegicus, UniProt P06766); assay: Inhibition of rat DNA polymerase beta using poly(dA)/oligo(dT)18 (A/T, 2/1)/dTTP DNA template-primer substrate measured at 37 degC for 60 mins
[4] = target: DNA-directed DNA/RNA polymerase mu (Homo sapiens, UniProt Q9NP87); assay: Inhibition of human DNA polymerase mu using poly(dA)/oligo(dT)18 (A/T, 2/1)/dTTP DNA template-primer substrate measured at 37 degC for 60 mins
[5] = target: T2, DNA polymerase kappa (Homo sapiens, UniProt Q9UBT6); assay: Inhibition of human DNA polymerase kappa using poly(dA)/oligo(dT)18 (A/T, 2/1)/dTTP DNA template-primer substrate measured at 37 degC for 60 mins
T2 sequence (Q9UBT6 whole entry): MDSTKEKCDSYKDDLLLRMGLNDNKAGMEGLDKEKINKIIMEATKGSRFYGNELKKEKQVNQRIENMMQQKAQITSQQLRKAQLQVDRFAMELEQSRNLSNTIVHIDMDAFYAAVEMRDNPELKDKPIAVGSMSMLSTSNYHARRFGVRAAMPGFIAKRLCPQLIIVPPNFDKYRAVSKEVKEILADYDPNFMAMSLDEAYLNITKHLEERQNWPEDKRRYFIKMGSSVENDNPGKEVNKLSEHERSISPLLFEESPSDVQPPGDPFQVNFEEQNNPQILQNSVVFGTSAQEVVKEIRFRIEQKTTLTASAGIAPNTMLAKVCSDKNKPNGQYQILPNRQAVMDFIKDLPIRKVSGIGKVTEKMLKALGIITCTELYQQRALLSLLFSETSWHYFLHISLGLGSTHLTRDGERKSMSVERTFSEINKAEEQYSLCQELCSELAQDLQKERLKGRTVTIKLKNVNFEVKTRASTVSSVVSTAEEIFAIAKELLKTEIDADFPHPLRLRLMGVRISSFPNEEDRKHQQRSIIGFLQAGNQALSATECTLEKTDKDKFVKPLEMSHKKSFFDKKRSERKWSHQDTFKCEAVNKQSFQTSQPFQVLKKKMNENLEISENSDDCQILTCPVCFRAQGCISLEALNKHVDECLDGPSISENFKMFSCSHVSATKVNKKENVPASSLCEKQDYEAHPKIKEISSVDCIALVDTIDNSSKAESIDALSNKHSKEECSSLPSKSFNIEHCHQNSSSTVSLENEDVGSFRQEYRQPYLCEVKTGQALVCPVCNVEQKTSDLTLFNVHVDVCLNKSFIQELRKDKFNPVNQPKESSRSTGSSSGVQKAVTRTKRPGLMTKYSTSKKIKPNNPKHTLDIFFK

[6] = test system: HCT-116; assay: Cytotoxicity against p53 -/- human HCT116 cells assessed as growth inhibition at 200 uM incubated for 24 hrs by WST-1 assay; type: functional, cell-based
[7] = test system: HCT-116; assay: Induction of apoptosis in p53 -/- human HCT116 cells assessed as apoptotic cells at 13.7 uM incubated for 24 hrs by TUNEL analysis; type: functional, cell-based
[8] = test system: HCT-116; assay: Induction of apoptosis in p53 +/+ human HCT116 cells assessed as DNA fragmentation at 13.2 uM incubated for 24 hrs by agarose gel electrophoresis; type: functional, cell-based
[9] = Cytotoxicity against human dermal fibroblasts; conditions: hdf

Sequence of DNA-directed DNA/RNA polymerase mu (Q9NP87 whole entry): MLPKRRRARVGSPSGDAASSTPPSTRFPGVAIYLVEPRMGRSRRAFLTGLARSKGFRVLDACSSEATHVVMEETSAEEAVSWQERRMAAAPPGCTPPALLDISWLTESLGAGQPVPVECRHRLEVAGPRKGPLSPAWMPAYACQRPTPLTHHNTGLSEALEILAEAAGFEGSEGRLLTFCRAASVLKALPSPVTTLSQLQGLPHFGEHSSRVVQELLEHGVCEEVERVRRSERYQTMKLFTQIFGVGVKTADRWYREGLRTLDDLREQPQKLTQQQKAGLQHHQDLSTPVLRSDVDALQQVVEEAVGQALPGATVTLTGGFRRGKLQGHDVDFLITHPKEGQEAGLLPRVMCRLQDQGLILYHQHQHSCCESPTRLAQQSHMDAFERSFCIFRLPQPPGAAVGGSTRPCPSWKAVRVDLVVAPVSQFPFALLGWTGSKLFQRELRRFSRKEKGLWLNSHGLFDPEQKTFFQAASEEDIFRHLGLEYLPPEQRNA

Structure (SMILES): CC[C@H](C)[C@H](NC(=O)[C@H](Cc1ccc(O)cc1)NC(=O)OC(C)(C)C)C(=O)Nc1cccc2ccccc12
- pIC50 [1]: < 3.70
- pIC50 [2]: < 3.70
- pIC50 [3]: 4.94
- pIC50 [4]: < 3.70
- pIC50 [5]: < 3.70
- growth inhibition (GI) [6]: Active
- Activity [7]: Active
- Activity [8]: Active
- Activity [9]: Non-toxic

— ChEMBL document CHEMBL2331167, “Inhibitory effect of novel somatostatin peptide analogues on human cancer cell growth based on the selective inhibition of DNA polymerase β” (Bioorg Med Chem, 2013)
